Laboratory results taken from patent US20220380310A1, “P2X7R ANTAGONISTS” (priority 2019, published 2022).
Where a name gives a salt, the structure may show the parent alone.

Experiments:
Assay type in all cases: cell-based
[1] = target: T1, Human P2X1 receptor (P2X1R) (Homo sapiens, UniProt P51575); assay: Receptor-mediated calcium entrance assay (Calcium Assay), P2X1R transfected HEK-293 cells; details: ATP 20 μM stimulus; for remaining activity at 5 µM: HEK293, compound at 5 μM, read-out: Percentage of activity remains in the presence of the compound at 5 μM, P2X1R (Calcium Assay)
T1 construct: expressed in transfected cells; host or cells: HEK-293
T1 sequence (P51575 1-399): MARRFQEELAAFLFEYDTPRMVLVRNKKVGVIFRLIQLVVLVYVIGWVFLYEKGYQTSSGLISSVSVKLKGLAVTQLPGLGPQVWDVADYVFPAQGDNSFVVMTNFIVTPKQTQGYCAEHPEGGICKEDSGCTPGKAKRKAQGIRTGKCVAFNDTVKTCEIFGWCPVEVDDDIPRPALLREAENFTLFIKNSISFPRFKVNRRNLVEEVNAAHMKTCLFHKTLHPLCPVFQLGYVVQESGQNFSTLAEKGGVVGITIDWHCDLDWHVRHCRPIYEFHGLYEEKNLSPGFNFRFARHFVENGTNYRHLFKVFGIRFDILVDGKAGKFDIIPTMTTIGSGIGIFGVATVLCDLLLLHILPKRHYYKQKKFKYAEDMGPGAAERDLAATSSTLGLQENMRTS
Description: (§1) Human P2X1 receptor (P2X1R) is a member of P2X family. […] Thus, the calcium assay was used. In the calcium assay, P2X receptor activation leads to opening of ion channels, which increases intracellular calcium concentration. The increased intracellular calcium concentration can be detected by a calcium indicator dye such as Fluo-4 or Fluo-8. Molecular Probes™ Fluo-4, AM (Cat. No. F14201 from Fisher Scientific) was used in the assay. The procedures were similar as described in the Yo-Pro-1 assay until day 4. The construct of P2X1R for transient transfection to HEK-293 cells was the courtesy from Dr. Richard J. Evans laboratory (J. Biol. Chem. 279:9043-9055). After transfection and expression, on day 4 cells were washed twice by Ca-HBSS (The composition (in mM) was NaCl 135, HEPES 10, D-glucose 10, KCl 5.4, CaCl2 2, and MgCl2 1, pH to 7.4 by NaOH) and incubated in dye loading solution (The solution contained 2.5 μM Fluo-4, 1 mM probenecid, and 1× PowerLoad (Cat. No. P10020 from Fisher Scientific) in Ca-HBSS) for 70 minutes at 37° C. Then the extracellular loading dye was washed away and cells were incubated at Ca-HBSS containing 1 mM probenecid for 30 minutes. Before the final steps, probenecid was washed away with Ca-HBSS. The assay was performed by adding 25 μl of Ca-HBSS followed by 25 μl of various test compounds. At this point, the base level of fluorescence was obtained through the microplate reading—the base microplate reading for this assay. At the end, the stimulus (ATP at 20 μM was the final concentration for P2X1R) was added to activate the P2X1R. Activation of P2X1R opened the channel to allow influx of calcium, which was represented by fluorescence increases that were measured by the microplate device with excitation at 475 nm and emission wavelength in the range of 500-550 nm. The data were analyzed the same way as described before: The result of each well was first normalized by its corresponding base microplate reading. Then, the negative control signal was subtracted from. In the negative control, the test compound and the stimulus were replaced by Ca-HBSS. […] An average of six highest values of the plate (AVG) were considered as 100% and the value of each well was divided by AVG and presented as the relative values in percentages.

[2] = target: T2, Human P2X4 receptor (P2X4R) (Homo sapiens, UniProt Q99571); assay: Receptor-mediated calcium entrance assay (Calcium Assay), P2X4R transfected HEK-293 cells; details: HEK293, compound at 5 μM, 1 mM ATP stimulus, read-out: Percentage of activity remains in the presence of the compound at 5 μM, P2X4R (Calcium Assay)
T2 construct: expressed in transfected cells; host or cells: HEK-293
T2 sequence (Q99571 1-388): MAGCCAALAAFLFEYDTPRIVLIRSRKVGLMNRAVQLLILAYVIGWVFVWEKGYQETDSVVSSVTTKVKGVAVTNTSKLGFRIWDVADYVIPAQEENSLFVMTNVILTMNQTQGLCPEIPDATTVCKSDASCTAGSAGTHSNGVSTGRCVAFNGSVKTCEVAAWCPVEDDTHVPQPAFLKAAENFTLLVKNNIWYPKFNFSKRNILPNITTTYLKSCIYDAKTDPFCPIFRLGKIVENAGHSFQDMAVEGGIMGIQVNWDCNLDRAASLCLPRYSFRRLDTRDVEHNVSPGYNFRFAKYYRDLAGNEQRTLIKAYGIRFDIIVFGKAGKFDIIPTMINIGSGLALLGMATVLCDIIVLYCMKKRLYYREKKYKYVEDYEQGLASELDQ
Description: as §1
Human P2X4 receptor (P2X4R) construct (J. Biol. Chem. 290, 7930-7942) was transiently transfected to HEK-293 cells and the calcium assay was performed as described above. When 1 mM ATP was used as stimulus, an increased receptor mediated activity leading to intracellular calcium elevation can be seen in less than 10 minutes.

P2X2R = target: T3, P2X2R (Homo sapiens, UniProt Q9UBL9); assay: Receptor-mediated calcium entrance assay (Calcium Assay), P2X2R; details: for remaining activity at 5 µM: compound at 5 μM, read-out: Percentage of activity remains in the presence of the compound at 5 μM, P2X2R (Calcium Assay)
T3 construct: expressed in transfected cells; host or cells: HEK-293
T3 sequence (Q9UBL9 1-471): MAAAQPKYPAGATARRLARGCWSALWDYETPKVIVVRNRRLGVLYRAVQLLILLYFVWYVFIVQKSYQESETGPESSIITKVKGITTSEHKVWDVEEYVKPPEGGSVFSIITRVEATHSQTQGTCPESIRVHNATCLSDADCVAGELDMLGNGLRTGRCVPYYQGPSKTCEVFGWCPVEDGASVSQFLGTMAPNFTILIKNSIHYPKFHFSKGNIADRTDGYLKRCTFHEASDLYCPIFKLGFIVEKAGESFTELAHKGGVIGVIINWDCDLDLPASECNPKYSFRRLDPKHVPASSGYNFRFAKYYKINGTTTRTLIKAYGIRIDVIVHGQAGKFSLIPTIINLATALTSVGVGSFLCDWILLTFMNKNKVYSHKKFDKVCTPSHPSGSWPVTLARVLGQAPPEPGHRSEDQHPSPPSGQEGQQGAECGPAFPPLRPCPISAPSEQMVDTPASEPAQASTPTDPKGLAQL

| Compound | remaining activity at 5 µM [1] [%] | remaining activity at 5 µM [2] [%] | remaining activity at 5 µM (P2X2R) [%] | Percentage of activity remains in the presence of the compound at 5 μM, P2X1R (Calcium Assay) [1] [%] | Percentage of activity remains in the presence of the compound at 5 μM, P2X2R (Calcium Assay) (P2X2R) [%] |
| --- | --- | --- | --- | --- | --- |
| CS(=O)(=O)c1ccc(N2CCCC(NC(=O)CCc3ccccc3)C2)cc1 (centres unmarked) [#1] | 56.5 | 71.9 | 61.3 |  |  |
| COc1ccc(S(=O)(=O)N2CCCC(NC(=O)CCc3ccccc3)C2)cc1 (centres unmarked) [#2] | 39.1 | 56.4 | 85.7 |  |  |
| O=C(CCc1ccccc1)NC1CCCN(S(=O)(=O)c2ccc(F)cc2)C1 (centres unmarked) [#3] | 33.3 | 67 | 98 |  |  |
| O=C(CCc1ccccc1)NC1CCCN(S(=O)(=O)c2ccc(OCc3ccccc3)cc2)C1 (centres unmarked) [#4] | 43.7 | 56.9 | 83.7 |  |  |
| O=C(CCc1ccccc1)NC1CCCN(S(=O)(=O)c2ccc(N3CCCCC3)cc2)C1 (centres unmarked) [#5] | 59.6 | 53.1 | 87.8 |  |  |
| CC(C)COc1ccc(S(=O)(=O)N2CCCC(NC(=O)CCc3ccccc3)C2)cc1 (centres unmarked) [#6] | 51 | 98.9 | 55.2 |  |  |
| CC(C)S(=O)(=O)c1ccc(N2CCCC(NC(=O)CCc3ccccc3)C2)cc1 (centres unmarked) [#7] | 65.6 | 76.8 | 78.8 |  |  |
| O=C(CCc1ccccc1)NC1CCCN(S(=O)(=O)Cc2ccc(Br)cc2)C1 (centres unmarked) [#8] | 67 | 50.9 | 94.6 |  |  |
| O=C(CCc1ccccc1)NC1CCCN(S(=O)(=O)c2ccc(-n3cc(Br)cn3)cc2)C1 (centres unmarked) [#9] | 92.8 | 84.5 | 61.3 |  |  |
| O=S(=O)(c1ccccc1)C1CN(S(=O)(=O)c2ccc(N3CCCCC3)cc2)C1 [#10] | 51.5 | 69.5 | 69.3 |  |  |
| O=S(=O)(c1ccccc1)C1CN(S(=O)(=O)c2ccc(N3CCOCC3)cc2)C1 [#11] | 44.3 | 59.6 | 52 |  |  |
| O=C(CCc1ccccc1)NC1CCCN(S(=O)(=O)c2ccc(N3CCOCC3)cc2)C1 (centres unmarked) [#12] | 52.8 | 69.1 | 64.8 |  |  |
| O=C(CCc1ccccc1)NC1CCCN(S(=O)(=O)c2ccc(N3CCCC3)cc2)C1 (centres unmarked) [#13] | 54.2 | 88.8 | 67.4 |  |  |
| CN(C)c1ccc(S(=O)(=O)N2CCCC(NC(=O)CCc3ccccc3)C2)cc1 (centres unmarked) [#14] | 63.9 | 70.9 | 72.7 |  |  |
| CCCCNc1ccc(S(=O)(=O)N2CCCC(NC(=O)CCc3ccccc3)C2)cc1 (centres unmarked) [#15] | 70.1 | 63.8 | 80.4 |  |  |
| O=C1CCC(N2Cc3c(NC(=O)CCc4ccccc4)cccc3C2=O)C(=O)N1 (centres unmarked) [#16] | 51.5 | 60.7 | 77 |  |  |

| Compound | remaining activity at 5 µM [1] [%] | remaining activity at 5 µM [2] [%] | remaining activity at 5 µM (P2X2R) [%] | Percentage of activity remains in the presence of the compound at 5 μM, P2X1R (Calcium Assay) [1] [%] | Percentage of activity remains in the presence of the compound at 5 μM, P2X2R (Calcium Assay) (P2X2R) [%] |
| --- | --- | --- | --- | --- | --- |
| COCCOc1ccc(S(=O)(=O)N2CCCC(NC(=O)CCc3ccccc3)C2)cc1 (centres unmarked) [#17] | 60.9 | 77.6 | 64.9 |  |  |
| CN1CCN(c2ccc(S(=O)(=O)N3CCCC(NC(=O)CCc4ccccc4)C3)cc2)CC1 (centres unmarked) [#18] | 62.3 | 61.6 | 73.1 |  |  |
| O=C(NCCc1ccccc1)C1CCN(S(=O)(=O)c2ccc(N3CCCCC3)cc2)CC1 [#20] | 75.4 | 50.6 | 68.1 |  |  |
| O=C(NCCc1ccccc1)C1CCN(S(=O)(=O)c2ccc(N3CCCC3)cc2)CC1 [#21] | 50.2 | 31 | 94.3 |  |  |
| CC(C)(C)OC(=O)N1CCN(c2ccc(S(=O)(=O)N3CCC(C(=O)NCCc4ccccc4)CC3)cc2)CC1 [#22] | 59.2 | 42.1 | 85.8 |  |  |
| O=C(NCCc1ccccc1)C1CCN(S(=O)(=O)c2ccc(N3CCOCC3)cc2)CC1 [#23] | 75.5 | 70.7 | 57.7 |  |  |
| O=C(NCCc1ccccc1)C1CCCN(S(=O)(=O)c2ccc(N3CCOCC3)cc2)C1 (centres unmarked) [#24] | 66.3 | 68.1 | 73.5 |  |  |
| O=C(NCCc1ccccc1)C1CCCN(S(=O)(=O)c2ccc(N3CCCC3)cc2)C1 (centres unmarked) [#25] | 66.1 | 61 | 70 |  |  |
| CCCCNc1ccc(S(=O)(=O)N2CCC(C(=O)O)CC2)cc1 [#27] | 50.8 | 59.9 | 67.2 |  |  |
| NC(=O)c1cc(Br)cc(N2CCOCC2)c1 [#28] | 62.6 | 85.4 | 50.7 |  |  |
| O=C(CCc1ccccc1)N1CCNCC1 [#29, hydrochloride] | 62.5 | 67.1 | 83.3 |  |  |
| O=C(CCc1ccccc1)N1CCN(S(=O)(=O)c2ccc(F)cc2)CC1 [#30] | 70.1 | 76.8 | 67.5 |  |  |
| CC(C)(C)OC(=O)N1CCN(c2ccc(S(=O)(=O)N3CCN(C(=O)CCc4ccccc4)CC3)cc2)CC1 [#31] | 43.9 | 81.8 | 78.3 |  |  |
| O=C(CCc1ccccc1)N1CCN(S(=O)(=O)c2ccc(N3CCOCC3)cc2)CC1 [#32] | 46.7 | 91 | 47.8 |  |  |
| Cc1nc(N=Nc2ccc(S(=O)(=O)[O-])cc2S(=O)(=O)[O-])c(COP(=O)([O-])[O-])c(C=O)c1O.[Na+].[Na+].[Na+].[Na+] [PPADS, Pyridoxalphosphate-6-azophenyl-2′,4′-disulfonic acid tetrasodium, reference compound] |  |  |  | 26.7 | 6.2 |
